Here are results for 32 compounds from PubChem BioAssay AID488827 (NMMLSC, 2010).

The experiment deals with S. cerevisiae CIT2-GFP strain, flow cytometry GFP, 3 h. Nature of the experiment: yeast TOR branch CIT2-GFP reporter modulators – flow cytometry, KU analogs, dose response, SAR follow-up (AID 488827). A general note: Flow cytometry measures light scatter and fluorescence of single cells or particles in a stream.

The source made the active and inactive calls.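 How the source made its calls: active means EC50 at or below 33 µM; inactive means the rest.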 A value given as a limit tells only on which side of the number the result lay.

By EC50 is commonly meant the concentration giving half of the maximal effect. On to `Cc1ccc(S(=O)(=O)c2ncccc2[N+](=O)[O-])cc1`, for which the EC50 is 191 µM (inactive).

As for `CNc1nc(N)c([N+](=O)[O-])c(NC2CCCCC2)n1`, the EC50 was 3.75 µM.

In the case of `O=C1ON=C(c2ccccc2)/C1=C\c1ccco1`, the EC50 is 188 µM (inactive).

In the case of `CNc1nc(N)c([N+](=O)[O-])c(Nc2cccc(Cl)c2)n1`, the EC50 is 1.07 µM.

Regarding `CCOC(=O)CCS(=O)(=O)c1nc(-c2ccccc2)cc(C(F)(F)F)n1`, the EC50 was 107 µM (inactive).

Turning to `O=[N+]([O-])c1cc(Cl)c2cccnc2c1O`, the EC50 was 33 µM (inactive).

For `CCOC(=O)CSC1=NC(=O)/C(=C\c2ccc(Cl)cc2)S1`, the EC50 was 120 µM (inactive).

Turning to `CNc1nc(N)c([N+](=O)[O-])c(Nc2ccccc2OC)n1`, the EC50 was 3.99 µM.

With `O=S(=O)(CCN(CCS(=O)(=O)C(F)(F)F)CC1CCCO1)C(F)(F)F` (configuration not stated), the EC50 is 65.2 µM (inactive).

With `CNc1nc(N)c([N+](=O)[O-])c(Nc2ccc(F)cc2)n1`, the EC50 was 56.3 µM (inactive).

`O=C(Oc1c(Cl)cc(Cl)c2cccnc12)c1cccc([N+](=O)[O-])c1`: the EC50 was 251 µM (inactive).

For the compound `Oc1c(I)cc(I)c2cccnc12`, the EC50 was 166 µM (inactive).

With `Nc1nc(Nc2cccc(F)c2)nc(Nc2cccc(F)c2)c1[N+](=O)[O-]`, the EC50 was 36.6 µM (inactive).

Regarding `Clc1ccc(N=c2ssnc2Cl)cc1`, the EC50 was 81.1 µM (inactive).

On to `CNc1nc(N)c([N+](=O)[O-])c(Nc2ccccc2)n1`, for which the concentration giving a half-maximal response (EC50) was 19.1 µM.

Turning to `CN1CCN(C(c2ccc(C(F)(F)F)cc2)c2ccc3cccnc3c2O)CC1` (configuration not stated), the EC50 was 87.1 µM (inactive).

On to `CN(C)CCCNc1nc(N)c([N+](=O)[O-])c(Nc2cccc(F)c2)n1`, for which the EC50 was 279 µM (inactive).

Regarding `CNc1nc(N)c([N+](=O)[O-])c(Nc2cccc(F)c2)n1`, the half-maximal effective concentration (EC50) is 2.52 µM.

For `Nc1nc(Nc2ccccc2)nc(Nc2cccc(F)c2)c1[N+](=O)[O-]`, the EC50 is 61.4 µM (inactive).

For the compound `COc1ccc([N+](=O)[O-])c(S(=O)(=O)c2ccc(Cl)cc2)n1`, the EC50 was 124 µM (inactive).

For the compound `Cc1ccc(C(c2cc(Cl)c3cccnc3c2O)N2CCN(C)CC2)cc1` (configuration not stated), the EC50 was 45.9 µM (inactive).

Consider `Cc1ccc(/C=C2/C(=O)ON=C2c2ccccc2)o1`, for which the EC50 was 39.6 µM (inactive).

For `O=C(Oc1ccnc2cc(Cl)ccc12)N1CCCCCC1`, the EC50 was 298 µM (inactive).

As to `O=C(Oc1c(Cl)cc(Cl)c2cccnc12)c1ccco1`, the EC50 was 87.4 µM (inactive).

Take `Nc1nc(NCCc2ccccc2)nc(Nc2cccc(F)c2)c1[N+](=O)[O-]`: the EC50 was 93.3 µM (inactive).

With `CCOC(=O)CS(=O)(=O)c1nc(-c2ccccc2)cc(C(F)(F)F)n1`, the EC50 is 109 µM (inactive).

Regarding `C/C(=N\NC(=O)c1ccc(C(C)(C)C)cc1)c1ccccn1`, the EC50 was 71 µM (inactive).

With `O=C(Nc1nc(-c2ccccn2)cs1)c1cc2ccccc2o1`, the EC50 was 60.6 µM (inactive).

Take `CC(C)(C)C(=O)NC(=S)NNC(=O)c1ccc(-c2ccccc2)cc1`: the EC50 is 66.9 µM (inactive).

Consider `Cc1c(C(=O)Nc2nc(-c3ccccn3)cs2)oc2ccccc12`, for which the EC50 was 161 µM (inactive).

Take `CSC1=NS(=O)(=O)c2c(C)nn(C)c2S1`: the EC50 is 294 µM (inactive).

Take `COc1ccc([N+](=O)[O-])c(S(=O)(=O)c2ccccc2)n1`: the EC50 is > 300 µM (inactive).
